What follows are compounds tested on BRCA1-mutated MDA-MB-436 cells (assay: Proliferation inhibitory test of BRCA1-mutated MDA-MB-436 cells (CCK-8)). Conditions: Homo sapiens, 120 h, 5 days, read-out: IC50 (nM), inhibitory activity against BRCA1-mutated MDA-MB-436 cells.
Format: cell-based
Protocol: CCK-8 was used to measure the content of mitochondrial dehydrogenase in cells at different drug concentrations, and the luminescence intensity was used to reflect the cell activity. The IC50 values of different compounds on BRCA1-mutated MDA-MB-436 cells were calculated using the survival rate, and the proliferation inhibitory effect of the compounds of the present disclosure on BRCA1-mutated MDA-MB-436 cells was studied to evaluate the anti-tumor efficacy of the test compounds at the cellular level.
On Day −1, the cells were inoculated into the 96-well cell culture plate at a fixed cell density and then placed in the 5% CO2 cell incubator for culture overnight at 37° C.
On Day 0, the compound to be tested was prepared into a 10 mM stock solution and diluted into 9 concentration points at the concentration of 1,000 nM, 300 nM, 100 nM, 30 nM, 10 nM, 3 nM, 1 nM, 0.3 nM and 0.1 nM in two duplicated wells. A fixed volume of the diluted compound was added to the 96-well cell culture plate and then placed in the 5% CO2 cell incubator for culture at 37° C. for 5 days.
On Day 5, a fixed volume of CCK-8 was added to the 96-well cell culture plate and incubated in the 5% CO2 cell incubator at 37° C. for 1.5 h, and the plate was read by a chemiluminescence module of the multifunctional microplate reader.
With the logarithmic value of the concentration as an X axis and the survival percentage as a Y axis, a dose-effect curve was fitted by using a log(inhibitor) vs. response-Variable slop (Four parameters) formula of the analysis software Graphpad Prism 9, thereby obtaining the IC50 value of the anti-proliferation inhibitory activity of each compound against BRCA1-mutated MDA-MB-436 cells.
For `Cc1nc(C(=O)NCCF)ccc1N1CCN(Cc2cc3[nH]c(=O)c(C)nc3c(F)c2F)CC1` [Compound 54, 5-(4-((7,8-difluoro-2-methyl-3-oxo-3,4-dihydroquinoxalin-6-yl)methyl)piperazin-1-yl)-N-(2-fluoroethyl)-6-methylpicolinamide], the IC50 was 4.97 nM. In the case of `CNC(=O)c1ccc(N2CCN(Cc3cc(C)c4nc(C)c(=O)[nH]c4c3)CC2)c(C)n1` [Compound 10, 5-(4-((2,8-dimethyl-3-oxo-3,4-dihydroquinoxalin-6-yl)methyl)piperazin-1-yl)-N,6-dimethylpicolinamide], the IC50 is reported as 3.63 nM. `CCc1nc2c(F)cc(CN3CCN(c4ccc(C(=O)NCCO)nc4C)CC3)cc2[nH]c1=O` [Compound 31, 5-(4-((2-ethyl-8-fluoro-3-oxo-3,4-dihydroquinoxalin-6-yl)methyl)piperazin-1-yl)-N-(2-hydroxyethyl)-6-methylpicolinamide] showed an IC50 of 8.77 nM. `CNC(=O)c1ccc(N2CCN(Cc3cc(F)c4nc(C)c(=O)[nH]c4c3)CC2)c(Cl)n1` [Compound 7, 6-chloro-5-(4-((8-fluoro-2-methyl-3-oxo-3,4-dihydroquinoxalin-6-yl)methyl)piperazin-1-yl)-N-methylpicolinamide] gave an IC50 of 2.31 nM. `Cc1nc(C(=O)N[C@@H]2CCOC2)ccc1N1CCN(Cc2cc(F)c3nc(C)c(=O)[nH]c3c2)CC1` [Compound 46, (R)-5-(4-((8-fluoro-2-methyl-3-oxo-3,4-dihydroquinoxalin-6-yl)methyl)piperazin-1-yl)-6-methyl-N-(tetrahydrofuran-3-yl)picolinamide] was tested, and the IC50 was 8.38 nM. Compound `CCc1nc2c(F)cc(CN3CCN(c4ccc(C(=O)NC5COC5)nc4C)CC3)cc2[nH]c1=O` [Compound 42, 5-(4-((2-ethyl-8-fluoro-3-oxo-3,4-dihydroquinoxalin-6-yl)methyl)piperazin-1-yl)-6-methyl-N-(oxetan-3-yl)picolinamide] has an IC50 of 4.02 nM. In the case of `Cc1nc2c(C)cc(CN3CCN(c4ccc(C#N)c(F)c4)CC3)cc2[nH]c1=O` [Compound 19, 4-(4-((2,8-dimethyl-3-oxo-3,4-dihydroquinoxalin-6-yl)methyl)piperazin-1-yl)-2-fluorobenzonitrile], the IC50 is reported as 8.31 nM. For `Cc1nc(C(=O)NCCF)ccc1N1CCN(Cc2cc(F)c3nc(C)c(=O)[nH]c3c2)CC1` [Compound 29, 5-(4-((8-fluoro-2-methyl-3-oxo-3,4-dihydroquinoxalin-6-yl)methyl)piperazin-1-yl)-N-(2-fluoroethyl)-6-methylpicolinamide], the IC50 was 9.83 nM. `COCCNC(=O)c1ccc(N2CCN(Cc3cc(C)c4nc(C)c(=O)[nH]c4c3)CC2)c(C)n1` [Compound 22, 5-(4-((2,8-dimethyl-3-oxo-3,4-dihydroquinoxalin-6-yl)methyl)piperazin-1-yl)-N-(2-methoxyethyl)-6-methylpicolinamide] was tested, and the IC50 was 6.95 nM. For `CNC(=O)c1ccc(N2CCN(Cc3cc4[nH]c(=O)c(C)nc4c(F)c3F)CC2)cn1` [Compound 8, 5-(4-((7,8-difluoro-2-methyl-3-oxo-3,4-dihydroquinoxalin-6-yl)methyl)piperazin-1-yl)-N-methylpicolinamide], the IC50 was 11.1 nM. `CCc1nc2c(F)cc(CN3CCN(c4ccc(C(=O)NCCF)nc4C)CC3)cc2[nH]c1=O` [Compound 30, 5-(4-((2-ethyl-8-fluoro-3-oxo-3,4-dihydroquinoxalin-6-yl)methyl)piperazin-1-yl)-N-(2-fluoroethyl)-6-methylpicolinamide] gave an IC50 of 5.94 nM. With `CCc1nc2c(F)cc(CN3CCN(c4ccc(C(=O)NCC5COC5)nc4C)CC3)cc2[nH]c1=O` [Compound 33, 5-(4-((2-ethyl-8-fluoro-3-oxo-3,4-dihydroquinoxalin-6-yl)methyl)piperazin-1-yl)-6-methyl-N-(oxetan-3-ylmethyl)picolinamide] the IC50 was 6.91 nM. With `CNC(=O)c1ccc(N2CCN(Cc3cc4[nH]c(=O)c(C)nc4cc3OC)CC2)c(C)n1` [Compound 41, 5-(4-((7-methoxy-2-methyl-3-oxo-3,4-dihydroquinoxalin-6-yl)methyl)piperazin-1-yl)-N,6-dimethylpicolinamide] the IC50 was 6.49 nM.

Source: patent publication US20250346573A1, “AZAQUINOLINONE DERIVATIVE, PREPARATION METHOD THEREFOR AND USE THEREOF” (CHENGDU EASTON BIOPHARMACEUTICALS CO., LTD., priority 2022, published 2025)
